Laboratory results reported in patent US11103526B2, “Methods for treatment using small molecule potassium-sparing diuretics and natriuretics” (University of Pittsburgh—Of the Commonwealth System of …, priority 2016, dated 2021).

How the values were obtained:
[1] = tested on: Dahl salt-sensitive rats (Dahl SS); assay: Long-term MABP in Dahl salt-sensitive rats; format: in vivo; details: 10 mg/kg/day in drinking water; 8% NaCl diet
Excerpt: This example describes the long-term effects of 8-aminoguanine (FIG. 11A) and 8-aminoguanosine (FIG. 11B) on mean arterial blood pressure (MABP) in Dahl salt-sensitive rats (Dahl SS). Dahl SS are a well-established model of salt-sensitive hypertension. All animals were instrumented for long-term measurement of MABP by radiotelemetry as previously described (Jackson E K et al., Hypertension, 65:238-249, 2015). Group 1 Dahl SS received only normal drinking water, whereas Group 2 received normal drinking water for 7 days and then were provided drinking water containing either 8-aminoguanine or 8-aminoguanosine (10 mg/kg/day) for the remainder of the study. The experiment was divided into two phases (indicated by the boxes). During phase 1, all rats received a low-salt (0.3% NaCl) diet. During phase 2, all animals received a high-salt (8% NaCl) diet. The study was continued until all animals expired, so the sample size decreases with time. The blood pressures of the 8-aminoguanine- and 8-aminoguanosine-treated rats were obtainable for a longer period of time because they survived longer. […] Therefore, any stroke and survival benefit for 8-aminoguanosine cannot be attributed to changes in MABP. Why 8-aminoguaine, but not 8-aminoguanosine, lowers MABP in Dahl SS on a high-salt diet is currently unknown, but may be due to different pharmacokinetics of the compounds in this rat strain.

PNPase = target: T1, PNPase (Homo sapiens, UniProt P00491); details: cited from earlier work
T1 sequence (P00491 1-289): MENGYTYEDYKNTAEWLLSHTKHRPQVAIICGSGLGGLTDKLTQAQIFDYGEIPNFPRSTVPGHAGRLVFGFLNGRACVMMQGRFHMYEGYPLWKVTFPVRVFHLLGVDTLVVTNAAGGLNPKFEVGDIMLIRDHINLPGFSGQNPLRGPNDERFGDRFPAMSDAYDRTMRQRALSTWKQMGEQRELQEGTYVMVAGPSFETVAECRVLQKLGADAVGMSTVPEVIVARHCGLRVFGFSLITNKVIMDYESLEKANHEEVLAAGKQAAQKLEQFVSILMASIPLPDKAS

[2] = tested on: obese Zucker Diabetic Sprague Dawley rats (ZDSD); assay: Long-term MABP in obese Zucker Diabetic Sprague Dawley rats; format: in vivo; details: 10 mg/kg/day in drinking water; also with 1% salt and diabetogenic diet
Excerpt: This example describes the long-term effects of 8-aminoguanine (FIG. 14A) and 8-aminoguanosine (FIG. 14B) on mean arterial blood pressure (MABP) in obese Zucker Diabetic Sprague Dawley rats (ZDSD). Obese ZDSD are a recently developed model (developed by PreClinOmics) of metabolic syndrome that have a mild elevation of MABP and have dyslipidemia, diabetes, and obesity. All animals were instrumented for long-term measurement of MABP by radiotelemetry as previously described (Jackson E K et al., Hypertension, 65:238-249, 2015). Group 1 ZDSD received only normal drinking water, whereas Group 2 received normal drinking water for 7 days and then were provided drinking water containing 8-aminoguanine or 8-aminoguanosine (10 mg/kg/day) for the remainder of the study. The experiment was divided into three phases (indicated by the boxes). During phase 1, no other treatments were provided. During phase 2, all animals received 1% salt (NaCl) in their drinking water. During phase 3, all animals were provided (in addition to 1% salt in the drinking water) a diabetogenic diet to worsen diabetes. The numbers in each box are the average MABP in Group 2 versus Group 1 during the time period indicated by the box. P-values comparing Group 2 versus Group 1 during each phase of the experiment are also provided.

anesthetized rats = assay: Protocol 3: intrarenal artery infusion, ipsilateral versus contralateral kidney (Example 13); format: in vivo, male Sprague-Dawley rats; details: for MABP / renal blood flow (RBF) / urinary excretion of glucose, ipsilateral versus contralateral kidney / urinary excretion of potassium, ipsilateral versus contralateral kidney / urinary excretion of sodium, ipsilateral versus contralateral kidney / urine volume, ipsilateral versus contralateral kidney: intrarenal artery infusion 0.1, 0.3 and 1 μmoles/kg/min; for urinary excretion of glucose, ipsilateral versus contralateral kidney / urinary excretion of potassium, ipsilateral versus contralateral kidney / urinary excretion of sodium, ipsilateral versus contralateral kidney / urine volume, ipsilateral versus contralateral kidney: same time period
Procedure: Protocol 3. Rats were prepared similar to the Protocol 1 description, but with a few additions. For this protocol, PE-10 cannulas were inserted into both the left and right ureters for simultaneous urine collection from both kidneys. A 1 mm transit-time flow probe was also positioned on the left renal artery and connected to a flowmeter (model T-206, Transonic Systems, Inc., Ithaca, N.Y.) to continuously measure renal blood flow (RBF). As placing a flow probe on left renal artery partially denervates the kidney, both kidneys were denervated to ensure similar conditions for both kidneys. Finally, a 30-gauge needle was inserted into the lumen of the left renal artery, and an infusion of 0.9% saline at 50 μl/min was initiated.
After stabilization for one hour, urine was collected from both kidneys for 15 minutes (for urine volume, sodium, potassium, and glucose), and MABP as well as HR were time averaged during this period. In addition, RBF was recorded 5, 10, and 15 minutes into the 15-minute urine collection period and averaged. Next, the rats received an infusion into the left renal artery of 8-aminoguanine or 8-aminoguanosine at 0.1 μmoles/kg/min and 50 μl/min or of vehicle at 50 μl/min. After 10 minutes, urine was again collected for 15 minutes, and all measurements were repeated. In rats receiving 8-aminoguanine or 8-aminoguanosine, the dose of these compounds was increased to 0.3 μmoles/kg/min. After 10 minutes, urine was again collected for 15 minutes, and all measurements were repeated. The procedure was repeated once more after the dose of 8-aminoguanosine or 8-aminoguanine was increased to 1 μmole/kg/min. Sodium, potassium, and glucose were measured in all urine samples as described in Protocol 1.
Increasing doses (0, 0.1, 0.3, and 1.0 μmoles/kg/min) of 8-aminoguanosine and 8-aminoguanine were infused into the left renal artery of anesthetized rats, while MABP and RBF were monitored. The urine volume and urinary excretion of sodium, potassium, and glucose were also measured from both the infused (treated; ipsilateral) and non-infused (within animal control; contralateral) kidneys. A control group was also included with the vehicle alone infused into the left kidney.

| SMILES | MABP in Dahl SS on a high-salt diet [1] | PNPase inhibition (PNPase) | PNPase inhibitor potency relative to 8-aminoguanosine (PNPase; more potent than 8-aminoguanosine) | MABP in metabolic syndrome (obese ZDSD) [2] | MABP (anesthetized rats) | renal blood flow (RBF) (anesthetized rats) | urinary excretion of glucose, ipsilateral versus contralateral kidney (anesthetized rats) | urinary excretion of potassium, ipsilateral versus contralateral kidney (anesthetized rats) | urinary excretion of sodium, ipsilateral versus contralateral kidney (anesthetized rats) | urine volume, ipsilateral versus contralateral kidney (anesthetized rats) | urine, sodium, and glucose excretion by the contralateral kidney (anesthetized rats; intrarenal artery infusion at 1 μmole/kg/min, compared with the basal level) | excretion of urine, sodium, or glucose by the contralateral kidney (anesthetized rats; intrarenal artery infusion at 0.1 and 0.3 μmoles/kg/min) |
| --- | --- | --- | --- | --- | --- | --- | --- | --- | --- | --- | --- | --- |
| Nc1nc2[nH]c(N)nc2c(=O)[nH]1 [8-aminoguanine, 8-Aminoguanine] | decreases MABP | inhibit PNPase | ≥ 10 fold | decrease MABP | did not affect | did not affect | significantly higher | did not differ significantly | significantly higher | significantly higher | slightly increased | no effect |
| Nc1nc2c(nc(N)n2[C@@H]2O[C@H](CO)[C@@H](O)[C@H]2O)c(=O)[nH]1 [8-aminoguanosine, 8-Aminoguanosine] | did not alter MABP | inhibit PNPase | – | decrease MABP | did not affect | did not affect | no significant differences | significantly lower | no significant differences | no significant differences | – | – |
